For this assay, the target named is T1, rat B1R (bradykinin receptor 1) (Rattus norvegicus, UniProt P97583).
T1 construct: expressed in transfected cells; host or cells: CHO K1 cells
T1 sequence (P97583 1-337): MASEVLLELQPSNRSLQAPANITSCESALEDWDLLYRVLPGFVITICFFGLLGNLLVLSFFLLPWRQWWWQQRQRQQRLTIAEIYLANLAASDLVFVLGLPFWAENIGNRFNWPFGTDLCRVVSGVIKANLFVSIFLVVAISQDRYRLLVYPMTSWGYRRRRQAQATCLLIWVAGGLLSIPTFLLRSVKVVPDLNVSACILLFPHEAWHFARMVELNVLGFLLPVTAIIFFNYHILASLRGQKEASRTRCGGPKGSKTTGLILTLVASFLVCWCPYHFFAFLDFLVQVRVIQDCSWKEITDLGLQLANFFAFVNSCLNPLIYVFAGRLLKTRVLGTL
The assay is described as follows: FLIPR Ca2+ assay (Fluo-4) on CHO K1 cells stably transfected with the B1R gene of the rat (rB1R cells): % inhibition at 10 μM / IC50, agonist Des-Arg9-bradykinin. Type of assay: cell-based. To be noted: for inhibition at 10 µM: CHO-K1, rat B1R. In short, it runs like this:
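Using a two-addition FLIPR protocol, compound (10 μM for % values; concentration series for IC50) was preincubated 10–20 min with Fluo-4-loaded B1R-expressing CHO K1 cells before EC80 agonist challenge. Suppression of Ca2+ inflow, read as peak fluorescence, is expressed relative to maximum achievable inhibition; duplicate/triplicate, ≥2 independent experiments.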

Data on 20 compounds can be found in patent publication US8455475B2 (Gruenenthal GmbH, priority 2009, dated 2013).

As to `CCn1cc(CN2CCC3(CC2)CCN(C(=O)c2ccc4c(c2)C(NC(=O)c2cccc(Cl)c2Cl)CC4)C3)c(C)n1` (centres unmarked) [IND_CC-742, 2,3-Dichloro-N-[6-[8-[(1-ethyl-3-methyl-1H-pyrazol-4-yl)-methyl]-2,8-diazaspiro[4.5]decane-2-carbonyl]-2,3-dihydro-1H-inden-1-yl]-benzamide], the inhibition at 10 µM was found to be 50%. In the case of `N#Cc1cccc(CN2CCC3(CC2)CCN(C(=O)c2ccc4c(c2)C(NC(=O)c2cc(Cl)ccc2F)CC4)CC3)c1` (centres unmarked) [IND_CC-654, 5-Chloro-N-[6-[9-[(3-cyano-phenyl)-methyl]-3,9-diazaspiro[5.5]undecane-3-carbonyl]-2,3-dihydro-1H-inden-1-yl]-2-fluoro-benzamide], the inhibition at 10 µM was 60%. In the case of `CC(C)(C)CC(=O)NC1CCc2ccc(C(=O)N3CCC4(CC3)CCN(c3ccncc3)CC4)cc21` (centres unmarked) [IND_CC-371, 3,3-Dimethyl-N-[6-(9-pyridin-4-yl-3,9-diazaspiro[5.5]undecane-3-carbonyl)-2,3-dihydro-1H-inden-1-yl]-butyramide], the inhibition at 10 µM was 104%. As for `COc1cccc(F)c1CN1CCC2(CC1)CCN(C(=O)c1ccc3c(c1)C(NC(=O)c1cc(C(F)(F)F)ccc1Cl)CC3)CC2` (centres unmarked) [IND_CC-649, 2-Chloro-N-[6-[9-[(2-fluoro-6-methoxy-phenyl)-methyl]-3,9-diazaspiro[5.5]-undecane-3-carbonyl]-2,3-dihydro-1H-inden-1-yl]-5-(trifluoromethyl)benzamide], the inhibition at 10 µM turned out to be 76%. As to `O=C(NC1CCc2ccc(C(=O)N3CCC4(CCN(Cc5ccc6ncccc6c5)CC4)CC3)cc21)c1cc(C(F)(F)F)ccc1Cl` (centres unmarked) [IND_CC-695, 2-Chloro-N-[6-[9-(quinolin-6-yl-methyl)-3,9-diazaspiro[5.5]undecane-3-carbonyl]-2,3-dihydro-1H-inden-1-yl]-5-(trifluoromethyl)-benzamide], the inhibition at 10 µM worked out at 100%.

For the compound `O=C(NC1CCc2ccc(C(=O)N3CCC4(CCN(CCc5ccccc5)CC4)C3)cc21)c1cc(C(F)(F)F)ccc1Cl` (centres unmarked) [IND_CC-690, 2-Chloro-N-[6-(8-phenethyl-2,8-diazaspiro[4.5]decane-2-carbonyl)-2,3-dihydro-1H-inden-1-yl]-5-(trifluoromethyl)-benzamide], the inhibition at 10 µM is 85%. The same measure, in the same setting: the figure for `O=C(NC1CCc2ccc(C(=O)N3CCC4(CCN(Cc5cccnc5)CC4)CC3)cc21)c1ccccc1Cl` (centres unmarked) [IND_CC-511, 2-Chloro-N-[6-[9-(pyridin-3-yl-methyl)-3,9-diazaspiro[5.5]undecane-3-carbonyl]-2,3-dihydro-1H-inden-1-yl]-benzamide] is 94%. Regarding `CC(C)CN1CCC2(CC1)CCN(C(=O)c1ccc3c(c1)C(NC(=O)c1cccc(Cl)c1Cl)CC3)C2` (centres unmarked) [IND_CC-747, 2,3-Dichloro-N-[6-[8-(2-methyl-propyl)-2,8-diazaspiro[4.5]decane-2-carbonyl]-2,3-dihydro-1H-inden-1-yl]-benzamide], the inhibition at 10 µM worked out at 59%. The same measure, in the same setting: the figure for `CC1(C)CC(NS(=O)(=O)c2cccc(C(F)(F)F)c2)c2cc(C(=O)N3CCC4(CC3)CCN(c3ccncc3)CC4)ccc21` (centres unmarked) [IND_CC-340, N-[3,3-Dimethyl-6-(3-pyridin-4-yl-3,9-diazaspiro[5.5]undecane-9-carbonyl)-1,2-dihydro-inden-1-yl]-3-(trifluoromethyl)-benzenesulfonic acid amide] is 101%. Still for that read-out and setting: the result for `O=C(c1ccc2c(c1)C(NS(=O)(=O)c1c(Cl)cccc1Cl)CC2)N1CCC2(CC1)CCN(c1ccncc1)C2` (centres unmarked) [IND_CC-323, 2,6-Dichloro-N-[6-(2-pyridin-4-yl-2,8-diazaspiro[4.5]decane-8-carbonyl)-2,3-dihydro-1H-inden-1-yl]-benzenesulfonic acid amide] reads 100%; that for `O=C(NC1CCc2ccc(C(=O)N3CCC4(CC3)CCN(S(=O)(=O)c3ccc(F)cc3F)CC4)cc21)c1ccccc1Cl` (centres unmarked) [IND_CC-609, 2-Chloro-N-[6-[9-[(2,4-difluoro-phenyl)sulfonyl]-3,9-diazaspiro[5.5]undecane-3-carbonyl]-2,3-dihydro-1H-inden-1-yl]-benzamide], 101%; that for `O=C(c1ccc2c(c1)C(NS(=O)(=O)c1c(Cl)cccc1Cl)CC2)N1CCC2(CCN(c3ccncc3)CC2)C1` (centres unmarked) [IND_CC-333, 2,6-Dichloro-N-[6-(8-pyridin-4-yl-2,8-diazaspiro[4.5]decane-2-carbonyl)-2,3-dihydro-1H-inden-1-yl]-benzenesulfonic acid amide], 92%. Same read-out and setting: the result for `O=C(NC1CCc2ccc(C(=O)N3CCC4(CCN(Cc5ccncc5)CC4)CC3)cc21)c1cc(Cl)ccc1F` (centres unmarked) [IND_CC-627, 5-Chloro-2-fluoro-N-[6-[9-(pyridin-4-yl-methyl)-3,9-diazaspiro[5.5]undecane-3-carbonyl]-2,3-dihydro-1H-inden-1-yl]-benzamide] reads 54%. “2,3-Dichloro-N-methyl-N-[6-(9-pyridin-4-yl-3,9-diazaspiro[5.5]undecane-3-carbonyl)-2,3-dihydro-1H-inden-1-yl]-benzenesulfonic acid amide [IND_CC-343]”: for the setting “rat B1R”, the “% Inhibition (rat B1R) at 10 μM” value is on record as 97%. With `O=C(c1ccc2c(c1)C(NS(=O)(=O)c1cccc(C(F)(F)F)c1)CC2)N1CCC2(CC1)CCN(c1ccncc1)CC2` (centres unmarked) [IND_CC-328, N-[6-(9-Pyridin-4-yl-3,9-diazaspiro[5.5]undecane-3-carbonyl)-2,3-dihydro-1H-inden-1-yl]-3-(trifluoromethyl)-benzenesulfonic acid amide], the inhibition at 10 µM amounted to 98%.

Turning to `CN(C(=O)c1c(F)cccc1F)C1CCc2ccc(C(=O)N3CCC4(CC3)CCN(c3ccncc3)CC4)cc21` (centres unmarked) [IND_CC-384, 2,6-Difluoro-N-methyl-N-[6-(9-pyridin-4-yl-3,9-diazaspiro[5.5]undecane-3-carbonyl)-2,3-dihydro-1H-inden-1-yl]-benzamide], the inhibition at 10 µM is 104%. On the same count and under the same terms, the figure for `O=C(NC1CCc2ccc(C(=O)N3CCC4(CC3)CCN(c3ccncc3)CC4)cc21)c1ccccc1F` (centres unmarked) [IND_CC-399, 2-Fluoro-N-[6-(9-pyridin-4-yl-3,9-diazaspiro[5.5]undecane-3-carbonyl)-2,3-dihydro-1H-inden-1-yl]-benzamide] is 101%; for `Cc1c(CN2CCC3(CC2)CCN(C(=O)c2ccc4c(c2)C(NC(=O)c2cc(C(F)(F)F)ccc2Cl)CC4)CC3)cnn1C` (centres unmarked) [IND_CC-664, 2-Chloro-N-[6-[9-[(1,5-dimethyl-1H-pyrazol-4-yl)-methyl]-3,9-diazaspiro[5.5]-undecane-3-carbonyl]-2,3-dihydro-1H-inden-1-yl]-5-(trifluoromethyl)benzamide] it is 54%. On the same count and under the same terms, the figure for `Cc1cccc(Cl)c1C(=O)NC1CCc2ccc(C(=O)N3CCC4(CCN(Cc5cnc(N(C)C)nc5)CC4)C3)cc21` (centres unmarked) [IND_CC-763, 2-Chloro-N-[6-[8-[(2-dimethylamino-pyrimidin-5-yl)-methyl]-2,8-diazaspiro-[4.5]decane-2-carbonyl]-2,3-dihydro-1H-inden-1-yl]-6-methyl-benzamide] is 74%. Take `Cc1ccccc1C(=O)NC1CCc2ccc(C(=O)N3CCC4(CC3)CCN(c3ccncc3)CC4)cc21` (centres unmarked) [IND_CC-346, 2-Methyl-N-[6-(9-pyridin-4-yl-3,9-diazaspiro[5.5]undecane-3-carbonyl)-2,3-dihydro-1H-inden-1-yl]-benzamide]: the inhibition at 10 µM was 104%.

By inhibition is commonly meant the relative decrease from the control value, in per cent.
